{
  "source": "patent US4146710A",
  "about": "“Solid cephalosporin salt” (Takeda Chemical Industries, Ltd., priority 1976, dated 1979)",
  "key": {"[1]": {"assay": "Storage stability in sealed vial at 50° C. for 4 weeks, % residue", "format": "physicochemical", "settings": "40320 min", "experimental": "One sample each of the following compounds was stored in a sealed vial at 50° C. for 4 weeks.\nThe sodium salt, zwitter ion, and monohydrochloride of 7β-[2-(2-imino-4-thiazoline-4-yl)acetamido]-3-[1-[2-(N,N-dimethylamino)ethyl]-1H-tetrazol-5-yl]thiomethyl-3-cephem-4-carboxylic acid, as well as the lyophilized powders of said acid dihydrochloride (amorphous powders, Example 4-(2)), the crystals of said acid dihydrochloride (Example 1-(3)) and the non-crystalline powders obtained by drying said dihydrochloride crystals (Example 1-(4)) as obtained in accordance with this invention.\nThe percent residue figures are as follows."}, "[2]": {"tested_on": "Bacillus subtilis ATCC 6633", "assay": "Bioassay by the cylinder method", "format": "cell-based", "experimental": "The bioassay by the cylinder method was carried out using 7β-[2-(2-imino-4-thiazolin-4-yl)acetamido]-3-[1-[2-(N,N-dimethylamino)ethyl]-1H-tetrazol-5-yl]thiomethyl-3-cephem-4-carboxylic acid .2H Cl salt as the standard product against Bacillus subtilis ATCC 6633 as the assay microorganism.\nThe potency of the anhydrous zwitter ion compound was 1000 mcg/ml. The calculated potency of a sample containing 2 moles of HCl per mole of the zwitter ion compound and none of non-bonding hydrochloric acid, water, residual solvent or other impurity is 878 mcg/ml."}, "[3]": {"assay": "Acute toxicity (mouse, intraperitoneal)", "settings": "in vivo, ip, 1:1 (by mole) mixture of compound (I) and sodium carbonate, anhydrate basis, read-out: CD50 (the source's name)", "excerpt": "(§1) The antibacterial potency (in terms of MIC) and toxicity of the contemplated compound (I) on anhydrate basis\n(2) Acute toxicity (mouse, intraperitoneal)\nThe acute toxicity data relates to a 1:1 (by mole) mixture of contemplated compound (I) and sodium carbonate."}, "[4]": {"tested_on": "Proteus morganii IFO 3848", "assay": "Antibacterial spectrum (agar dilution), MIC", "format": "cell-based", "settings": "Morganella morganii, IFO3848, on anhydrate basis, P. morganii IFO 3848", "excerpt": "as §1\n(§2) (1) Antibacterial spectrum (agar dilution)"}, "[5]": {"tested_on": "Proteus vulgaris IFO 3988", "assay": "Antibacterial spectrum (agar dilution), MIC", "format": "cell-based", "settings": "IFO3988, on anhydrate basis, P. vulgaris IFO 3988", "excerpt": "as §1, §2"}, "[6]": {"tested_on": "Escherichia coli T-7", "assay": "Antibacterial spectrum (agar dilution), MIC", "format": "cell-based", "settings": "T7, on anhydrate basis, E. coli T-7", "excerpt": "as §1, §2"}, "[7]": {"tested_on": "Escherichia coli O-111", "assay": "Antibacterial spectrum (agar dilution), MIC", "format": "cell-based", "settings": "O111, on anhydrate basis, E. coli O-111", "excerpt": "as §1, §2"}, "[8]": {"tested_on": "Klebsiella pneumoniae DT", "assay": "Antibacterial spectrum (agar dilution), MIC", "format": "cell-based", "settings": "on anhydrate basis, K. pneumoniae DT", "excerpt": "as §1, §2"}, "[9]": {"tested_on": "Staphylococcus aureus FDA 209 P", "assay": "Antibacterial spectrum (agar dilution), MIC", "format": "cell-based", "settings": "FDA209, on anhydrate basis, S. aureus FDA 209 P", "excerpt": "as §1, §2"}, "[10]": {"tested_on": "Escherichia coli NIHJ JC-2", "assay": "Antibacterial spectrum (agar dilution), MIC", "format": "cell-based", "settings": "NIHJJC2, on anhydrate basis, E. coli NIHJ JC-2", "excerpt": "as §1, §2"}, "[11]": {"tested_on": "Staphylococcus aureus 1840", "assay": "Antibacterial spectrum (agar dilution), MIC", "format": "cell-based", "settings": "on anhydrate basis, S. aureus 1840", "excerpt": "as §1, §2"}, "[12]": {"assay": "Stability in storage / shelf-life (statement)", "format": "physicochemical"}, "[13]": {"assay": "Water solubility (statement)", "format": "physicochemical"}, "[14]": {"settings": "West German Patent Application Laid Open No. 2461478; cited from earlier work"}},
  "note": "Where a name gives a salt, the structure may show the parent alone. Read-outs that look alike come from different tables or passages of the source.",
  "data": [
    {"smiles": "CN(C)CCn1nnnc1SCC1=C(C(=O)O)N2C(=O)[C@@H](NC(=O)Cc3csc(N)n3)[C@H]2SC1", "note": "[Monohydrochloride (lyophilizate), 7β-[2-(2-imino-4-thiazoline-4-yl)acetamido]-3-[1-[2-(N,N-dimethylamino)ethyl]-1H-tetrazol-5-yl]thiomethyl-3-cephem-4-carboxylic acid, reference compound]", "values": [
      {"measurement": "% Residue", "setting": "[1]", "result": 73, "unit": "%"}
    ]},
    {"smiles": "CN(C)CCn1nnnc1SCC1=C(C(=O)O)N2C(=O)[C@@H](NC(=O)Cc3csc(N)n3)[C@H]2SC1", "note": "[Example 4-(2), 7β-[2-(2-imino-4-thiazolin-4-yl)acetamido]-3-[1-[2-(N,N-dimethylamino)ethyl]-1H-tetrazol-5-yl]thiomethyl-3-cephem-4-carboxylic acid]", "values": [
      {"measurement": "% Residue", "setting": "[1]", "result": 86, "unit": "%"}
    ]},
    {"smiles": "CN(C)CCn1nnnc1SCC1=C(C(=O)O)N2C(=O)[C@@H](NC(=O)Cc3csc(N)n3)[C@H]2SC1", "note": "[Sodium salt (lyophilizate), 7β-[2-(2-imino-4-thiazoline-4-yl)acetamido]-3-[1-[2-(N,N-dimethylamino)ethyl]-1H-tetrazol-5-yl]thiomethyl-3-cephem-4-carboxylic acid, reference compound]", "values": [
      {"measurement": "% Residue", "setting": "[1]", "result": 76, "unit": "%"}
    ]},
    {"smiles": "CN(C)CCn1nnnc1SCC1=C(C(=O)O)N2C(=O)[C@@H](NC(=O)Cc3csc(=N)[nH]3)[C@H]2SC1", "note": "[Example 7-(3), 5β-[2-(2-imino-4-thiazolin-4-yl)acetamido]-3-[1-[2-(N,N-dimethylamino)ethyl]-1H-tetrazol-5-yl]thiomethyl-3-cephem-4-carboxylic acid]", "values": [
      {"measurement": "Bioassay (potency)", "setting": "[2]", "result": 865, "unit": "µg/mL"}
    ]},
    {"smiles": "CN(C)CCn1nnnc1SCC1=C(C(=O)O)N2C(=O)[C@@H](NC(=O)Cc3csc(N)n3)[C@H]2SC1", "note": "[Example 1-(3), 7β-[2-(2-imino-4-thiazolin-4-yl)acetamido]-3-[1-[2-(N,N-dimethylamino)ethyl]-1H-tetrazol-5-yl]thiomethyl-3-cephem-4-carboxylic acid]", "values": [
      {"measurement": "% Residue", "setting": "[1]", "result": 99, "unit": "%"}
    ]},
    {"smiles": "CN(C)CCn1nnnc1SCC1=C(C(=O)O)N2C(=O)[C@@H](NC(=O)Cc3csc(N)n3)[C@H]2SC1", "note": "[Example 1-(4), 7β-[2-(2-imino-4-thiazolin-4-yl)acetamido]-3-[1-[2-(N,N-dimethylamino)ethyl]-1H-tetrazol-5-yl]thiomethyl-3-cephem-4-carboxylic acid]", "values": [
      {"measurement": "% Residue", "setting": "[1]", "result": 98, "unit": "%"}
    ]},
    {"smiles": "CN(C)CCn1nnnc1SCC1=C(C(=O)O)N2C(=O)[C@@H](NC(=O)Cc3csc(N)n3)[C@H]2SC1", "note": "[compound (I)]", "values": [
      {"measurement": "LD50", "setting": "[3]", "result": "≥ 20000", "unit": "mg/kg"},
      {"measurement": "MIC", "setting": "[4]", "result": 0.39, "unit": "µg/mL"},
      {"measurement": "MIC", "setting": "[5]", "result": 1.56, "unit": "µg/mL"},
      {"measurement": "MIC", "setting": "[6]", "result": 1.56, "unit": "µg/mL"},
      {"measurement": "MIC", "setting": "[7]", "result": 0.05, "unit": "µg/mL"},
      {"measurement": "MIC", "setting": "[8]", "result": 0.1, "unit": "µg/mL"},
      {"measurement": "MIC", "setting": "[9]", "result": 0.39, "unit": "µg/mL"},
      {"measurement": "MIC", "setting": "[10]", "result": 0.2, "unit": "µg/mL"},
      {"measurement": "MIC", "setting": "[11]", "result": 0.78, "unit": "µg/mL"},
      {"measurement": "stability in storage", "setting": "[12]", "result": "highly stable in storage"}
    ]},
    {"smiles": "CN(C)CCn1nnnc1SCC1=C(C(=O)O)N2C(=O)[C@@H](NC(=O)Cc3csc(N)n3)[C@H]2SC1", "note": "[compound (II), 7β-[2-(2-imino-4-thiazolin-4-yl)acetamido]-3-[1-[2-(N,N-dimethylamino)ethyl]-1H-tetrazol-5-yl]thiomethyl-3-cephem-4-carboxylic acid, reference compound]", "values": [
      {"measurement": "water solubility", "setting": "[13]", "result": "high water solubility"},
      {"measurement": "% Residue", "setting": "[1]; listed as Zwitter ion(lyophilizate)", "result": 54, "unit": "%"},
      {"measurement": "antibiotic activity", "setting": "[14]", "result": "excellent antibiotic activity"},
      {"measurement": "stability on long shelf-life", "setting": "[12]; free acid form (zwitter ion) or salt with a base", "result": "unstable in the free acid form (zwitter ion) or its salt with a base"},
      {"measurement": "Bioassay (potency)", "setting": "[2]; listed as anhydrous zwitter ion compound", "result": 1000, "unit": "µg/mL"}
    ]}
  ]
}
